Common to all, as to type: physicochemical
The nature of data set [1]: UV-Vis absorption spectroscopy (absorption maximum, extinction coefficient). The note with it: for λmax: absorption maximum, UV-vis; for ε (extinction coefficient): determined by UV-Vis spectroscopy, in M-1cm-1 (unit assumed). The text has this: (§1) All manipulation with photosensitive samples were accomplished under the red light (λ>600 nm). In the spectroscopy measurements, the lowest possible intensity of incident light was used; the spectroscopic identity of the samples was confirmed after each measurement to ensure that no unwanted photodegradation processes occurred. All measurements were accomplished using fresh solutions prepared in the dark. ^1H and ^13C NMR spectra were obtained in CDCl3 on 101, 125, 400 and 500 MHz spectrometers. ^1H chemical shifts are reported in ppm relative to the tetramethylsilane signal (TMS, δ=0.00 ppm), using the residual solvent signal as an internal reference. ^13C NMR chemical shifts are reported in ppm relative to the CDCl3 signal as an internal standard. IR spectra were recorded on an FTIR spectrophotometer. Mass spectra (MS) and high resolution mass spectra (HRMS) were recorded using an ESI and APCI techniques. Absorption spectra and the molar absorption coefficients were obtained on a UV-vis spectrometer with matched 1.0-cm quartz cells. […] A nanosecond flash lamp (filled with H2) was used to determine the fluorescence lifetimes. The data obtained were deconvolved from the measured decay curves of the sample and the instrumental response function. The quantum yields of fluorescence were obtained using a calibrated integration sphere.
(§2) The observed substrate release rate as a function of photolysis time is quantified by the quantum efficiency parameter (εϕ), which is the product of the extinction coefficient at the irradiation wavelength (E) and the quantum yield (ϕ). Extinction coefficients for compounds 1-7 were determined by UV-Vis spectroscopy (see Table 1).

A short description of data set [2]: Fluorescence emission spectroscopy. The note with it: emission maximum.
Text: as §1

The nature of data set [3]: Quantum yield and quantum efficiency of photorelease on irradiation. The settings on record: for εΦ (quantum efficiency): product of extinction coefficient and quantum yield; for Φ (quantum yield): solutions in methanol, λirr 365, 490, 507 nm. Here is the method: A solution of the given compound (3.0 mL) in a matched 1.0 cm quartz PTFE screw-cap fluorescence cuvette equipped with a stir bar was irradiated with a light source (32 LEDs emitting at the selected wavelength: λmax=365, 490, 507 nm; the bandwidths at half height=30 nm; high-pressure 450 W mercury-xenon arc lamp with a monochromator with 200-1600 nm grating set to 365±0.5 nm). The reaction progress was monitored by UV-vis spectrometry using a diode-array spectrophotometer in a kinetic mode.
Photodegradation quantum yields for both aerated and degassed (freeze-pump-thaw technique; 3 cycles) solutions in methanol were determined at λirr=365 (LEDs and mercury-xenon arc lamp), 490 nm (LEDs), and 507 nm (LEDs) with xanthene-9-carboxylic acidl and BODIPY-CORM2 as actinometers; most values were cross-checked using ferrioxalate3 at λirr=365 nm. The data were processed using single value decomposition (SVD) software assuming the first-order rate law. The amount of absorbed light was calculated from the whole emission spectrum of the light source. […] All quantum yield measurements were repeated at least 6 times with independently prepared samples.
as §2

The source of these data is patent US10493153B2, “Alkylated photoremovable protecting groups and uses thereof” (Iowa State University Research Foundation, Inc., priority 2018, dated 2019).

As for `CC1=CC(C)=[N+]2C1=C(CCl)c1c(C)cc(C)n1[B-]2(C)C` [Compound 1, 4,4′-Dimethyl-8-chloromethyl-1,3,5,7-tetramethyl-4-bora-3a,4a-diaza-s-indacene], in data set [1], the λmax is reported as 519 nm and the “ε (extinction coefficient)” value is 60,580. Moreover, in data set [2], the λem is listed as 556 nm. In data set [3], the “εΦ (quantum efficiency)” value is 41,194 M^−1cm^−1 and the “Φ (quantum yield)” value was found to be 0.68.

With `CC1=C(I)C(C)=[N+]2C1=C(COC(=O)Cc1ccccc1)c1c(C)c(I)c(C)n1[B-]2(C)C` [Compound 6, 2,6-Diiodo-4,4′-dimethyl-8-methyl-(2-phenylacetate)-1,3,5,7-tetramethyl-4-bora-3a,4a-diaza-s-indacene], in data set [1], the λmax came out at 538 nm and the “ε (extinction coefficient)” value was 60,700. The molecule further displayed a λem in data set [2] of 572 nm. In data set [3], the “εΦ (quantum efficiency)” value is on record as 16,996 M^−1cm^−1 and the “Φ (quantum yield)” value amounted to 0.28.

Regarding “2,6-Diiodo-4,4′-dimethyl-8-chloro ethyl-1,3,5,7-tetramethyl-4-bora-3a,4a-diaza-s-indacene [Compound 5]”, in data set [1], the λmax is 542 nm and the “ε (extinction coefficient)” value is reported as 62,400. For the same molecule, in data set [2], the λem was 573 nm. Moreover, in data set [3], the “εΦ (quantum efficiency)” value is on record as 59,280 M^−1cm^−1 and the “Φ (quantum yield)” value is on record as 0.95.

In the case of `CC[B-]1(CC)n2c(C)cc(C)c2C(COC(=O)Cc2ccccc2)=C2C(C)=CC(C)=[N+]21` [Compound 3, 4,4′-Diethyl-8-methyl-(2-phenylacetate)-1,3,5,7-tetramethyl-4-bora-3a,4a-diaza-s-indacene], in data set [1], the λmax turned out to be 513 nm and the “ε (extinction coefficient)” value is recorded as 55,300. This molecule had a λem in data set [2] of 550 nm. Besides, in data set [3], the “εΦ (quantum efficiency)” value is on record as 4,424 M^−1cm^−1 and the “Φ (quantum yield)” value came out at 0.08.

For `CC1=CC(C)=[N+]2C1=C(COC(=O)Cc1ccccc1)c1c(C)cc(C)n1[B-]2(C)C` [Compound 2, 4,4′-Dimethyl-8-methyl(2-phenylacetate)-1,3,5,7-tetramethyl-4-bora-3a,4a-diaza-s-indacene], in data set [1], the λmax came to 512 nm and the “ε (extinction coefficient)” value was 68,500. For the same molecule, the λem in data set [2] is 550 nm. Further, in data set [3], the “εΦ (quantum efficiency)” value was 7,398 M^−1cm^−1 and the “Φ (quantum yield)” value stood at 0.11.

Take `CC1=CC(C)=[N+]2C1=C(COC(=O)Cc1ccccc1)c1c(C)cc(C)n1[B-]2(c1ccccc1)c1ccccc1` [Compound 4, 4,4′-Diphenyl-8-methyl-(2-phenylacetate)-1,3,5,7-tetramethyl-4-bora-3a,4a-diaza-s-indacene]: in data set [1], the λmax is 517 nm and the “ε (extinction coefficient)” value is on record as 58,300. For the same molecule, the λem in data set [2] is recorded as 562 nm. In addition, in data set [3], the “εΦ (quantum efficiency)” value came out at 583 M⁻¹ cm⁻¹ and the “Φ (quantum yield)” value came to 0.01.
